Reference: PubChem BioAssay (NCI)
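Cultured in 96-well plates, cells were exposed to test compound for 48 hours across five concentrations. The concentration for 50% growth inhibition is given as GI50. TGI denotes the concentration required for complete inhibition of growth.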

Experiments:
Assay in all cases: DTP human tumour cell line panel, 48 h
[1] = tested on: MDA-N
[2] = tested on: IGROV1 ovarian
[3] = tested on: MALME-3M melanoma
[4] = tested on: MDA-MB-435
[5] = tested on: LOX IMVI melanoma
[6] = tested on: MDA-MB-231 breast
[7] = tested on: OVCAR-3 ovarian
[8] = tested on: A498 renal
[9] = tested on: HOP-62 NSCLC
[10] = tested on: OVCAR-5 ovarian
[11] = tested on: KM12 colon
[12] = tested on: UACC-257 melanoma
[13] = tested on: HOP-92 NSCLC
[14] = tested on: PC-3 prostate
[15] = tested on: UO-31 renal
[16] = tested on: COLO 205 colon
[17] = tested on: SF-295 CNS
[18] = tested on: CAKI-1 renal
[19] = tested on: SK-OV-3 ovarian
[20] = tested on: SK-MEL-5 melanoma
[21] = tested on: K-562 leukemia
[22] = tested on: RPMI-8226 leukemia
[23] = tested on: SNB-75 CNS
[24] = tested on: NCI-H522 lung
[25] = tested on: RXF 393 renal
[26] = tested on: ACHN renal
[27] = tested on: OVCAR-4 ovarian
[28] = tested on: HCC-2998 colon
[29] = tested on: 786-0 renal
[30] = tested on: DU-145 prostate
[31] = tested on: SK-MEL-28 melanoma
[32] = tested on: UACC-62 melanoma
[33] = tested on: SR leukemia
[34] = tested on: NCI-H460 lung
[35] = tested on: NCI/ADR-RES ovarian
[36] = tested on: CCRF-CEM leukemia
[37] = tested on: A549 NSCLC
[38] = tested on: OVCAR-8 ovarian
[39] = tested on: SNB-19 CNS
[40] = tested on: SK-MEL-2 melanoma
[41] = tested on: NCI-H226 lung
[42] = tested on: NCI-H23 lung
[43] = tested on: SF-539 CNS
[44] = tested on: MCF7 breast
[45] = tested on: EKVX NSCLC
[46] = tested on: M14 melanoma
[47] = tested on: MOLT-4 leukemia
[48] = tested on: HT29 colon
[49] = tested on: T-47D breast
[50] = tested on: SW-620 colon
[51] = tested on: HL-60(TB) leukemia
[52] = tested on: HCT-15 colon
[53] = tested on: TK-10 renal
[54] = tested on: BT-549 breast
[55] = tested on: U251 CNS
[56] = tested on: HCT-116 colon
[57] = tested on: SN12C renal
[58] = tested on: SF-268 CNS
[59] = tested on: HS 578T breast

## C=CC(C)(C)n1cc(C2=C(O)C(=O)C(c3cn(C(C)(C)C=C)c4ccccc34)=C(OC(C)=O)C2=O)c2ccccc21
[1]
  TGI: 1990 nM
[2]
  TGI: 1650 nM
[3]
  TGI: 3060 nM
[4]
  TGI: 1740 nM
[5]
  TGI: 1720 nM
[6]
  TGI: 2630 nM
[7]
  TGI: 2250 nM
[8]
  TGI: 2100 nM
[9]
  TGI: 1940 nM
[10]
  TGI: 3080 nM
[11]
  TGI: 1970 nM
[12]
  TGI: 2190 nM
[13]
  TGI: 1950 nM
[14]
  TGI: 1990 nM
[15]
  TGI: 2300 nM
[16]
  TGI: 3070 nM
[17]
  TGI: 1880 nM
[18]
  TGI: 2280 nM
[19]
  TGI: 2850 nM
[20]
  TGI: 1870 nM
[21]
  TGI: 2170 nM
[22]
  TGI: 3880 nM
[23]
  TGI: 1550 nM
[24]
  TGI: 2970 nM
[25]
  TGI: 2380 nM
[26]
  TGI: 2550 nM
[27]
  TGI: 2640 nM
[28]
  TGI: 2160 nM
[29]
  TGI: 2800 nM
[30]
  TGI: 2230 nM
[31]
  TGI: 2500 nM
[32]
  TGI: 2180 nM

## CCCCCCCCCCCCNC(=O)[C@H]1CSC(c2ccc(OC)c(F)c2)N1 (stereo partly drawn)
[33]
  GI50: 324 nM
  TGI: 1590 nM
[34]
  GI50: 1740 nM
  TGI: 3630 nM
[2]
  GI50: 325 nM
  TGI: 902 nM
[3]
  GI50: 1780 nM
  TGI: 3240 nM
[4]
  GI50: 193 nM
  TGI: 385 nM
[35]
  GI50: 1610 nM
  TGI: 3520 nM
[36]
  GI50: 225 nM
  TGI: 579 nM
[37]
  GI50: 1890 nM
  TGI: 3690 nM
[38]
  GI50: 1180 nM
  TGI: 4130 nM
[5]
  GI50: 190 nM
  TGI: 398 nM
[39]
  GI50: 1950 nM
  TGI: 3660 nM
[6]
  GI50: 225 nM
  TGI: 550 nM
[40]
  GI50: 1770 nM
  TGI: 3410 nM
[7]
  GI50: 1450 nM
  TGI: 3260 nM
[41]
  GI50: 1420 nM
  TGI: 3210 nM
[8]
  GI50: 1780 nM
  TGI: 3280 nM
[9]
  GI50: 273 nM
  TGI: 748 nM
[10]
  GI50: 1400 nM
  TGI: 2720 nM
[42]
  GI50: 1600 nM
  TGI: 3270 nM
[11]
  GI50: 335 nM
  TGI: 1140 nM
[43]
  GI50: 785 nM
  TGI: 2140 nM
[44]
  GI50: 1550 nM
  TGI: 3310 nM
[12]
  GI50: 1620 nM
  TGI: 3130 nM
[13]
  GI50: 1690 nM
  TGI: 3240 nM
[45]
  GI50: 678 nM
  TGI: 2000 nM
[14]
  GI50: 380 nM
  TGI: 1430 nM
[15]
  GI50: 1630 nM
  TGI: 3010 nM
[16]
  GI50: 1940 nM
  TGI: 3840 nM
[46]
  GI50: 191 nM
  TGI: 374 nM
[47]
  GI50: 214 nM
  TGI: 469 nM
[17]
  GI50: 1720 nM
  TGI: 3250 nM
[18]
  GI50: 1560 nM
  TGI: 2940 nM
[48]
  GI50: 837 nM
  TGI: 2420 nM
[19]
  GI50: 1960 nM
  TGI: 3430 nM
[20]
  GI50: 1270 nM
  TGI: 2570 nM
[21]
  GI50: 215 nM
  TGI: 938 nM
[49]
  GI50: 1750 nM
  TGI: 3660 nM
[50]
  GI50: 870 nM
  TGI: 2810 nM
[22]
  GI50: 2060 nM
  TGI: 4620 nM
[23]
  GI50: 468 nM
  TGI: 1010 nM
[24]
  GI50: 1820 nM
  TGI: 3640 nM
[51]
  GI50: 1630 nM
  TGI: 3590 nM
[25]
  GI50: 867 nM
  TGI: 2200 nM
[26]
  GI50: 1630 nM
  TGI: 3000 nM
[52]
  GI50: 1780 nM
  TGI: 3390 nM
[53]
  GI50: 1950 nM
  TGI: 3480 nM
[27]
  GI50: 699 nM
  TGI: 1990 nM
[54]
  GI50: 370 nM
  TGI: 912 nM
[28]
  GI50: 1750 nM
  TGI: 3330 nM
[29]
  GI50: 1630 nM
  TGI: 3080 nM
[55]
  GI50: 1890 nM
  TGI: 3660 nM
[56]
  GI50: 421 nM
  TGI: 1410 nM
[30]
  GI50: 888 nM
  TGI: 2460 nM
[31]
  GI50: 342 nM
  TGI: 1110 nM
[57]
  GI50: 841 nM
  TGI: 2140 nM
[58]
  GI50: 216 nM
  TGI: 455 nM
[32]
  GI50: 1450 nM
  TGI: 2830 nM
[59]
  GI50: 241 nM
  TGI: 577 nM
